# According to patent US20100041089A1, “IMPROVED METHOD FOR DETECTING CHEMICAL […]” (priority 2006, published 2010):
# Tested on: yeast genes (expressed mRNA)
# Assay: DNA chip measurement of expressed mRNA of yeast genes after culture with a toxic chemical substance
# Format: cell-based, Saccharomyces cerevisiae S288C
# Conditions: for level of expressed mRNA in the presence of chemical substance / level in the absence of chemical substance: cultured two hours with the chemical substance; for The level of expressed mRNA in the presence of chemical substance/The level of expressed mRNA in the absence of chemical substance: cultured two hours with substance
# Method: Yeast (Saccharomyces cerevisiae S288C (a SUC2mal mel gap2 CUP1)) were cultured at 25° C. on YPD medium (yeast extract 1%, polypeptone 2%, glucose 2%). One of toxic chemical substances was added to the cell at logarithmic growth phase, and the cell was further cultured for two hours. Cell was cultured without any chemical substance in the same condition, and was used as a control. Concentrations of the chemical substances were defined to inhibit the growth of the yeast but not lead to death.
# After the completion of cultivation, the culture was centrifuged to collect the cells. To the cells, sodium acetate buffer (50 mM sodium acetate, 10 mM EDTA, 1% SDS) was added, and the mixture was shaken at 65° C. for five minutes, followed by returning to room temperature, and obtaining the supernatant, which procedure was repeated two times. To the supernatant, ½ amount of a solution of phenol/chloroform (1:1) was added, and the mixture was centrifuged to give a supernatant, an equal amount of chloroform was added, and the mixture was centrifuged to give a supernatant. To the supernatant, an equal amount of isopropanol containing 0.3 M sodium acetate was added, and the mixture was allowed to stand at room temperature for 30 minutes, after which the mixture was centrifuged to give sediment of the whole RNAs. Seventy % ethanol was added to the sediment, and the mixture was again centrifuged to give sediment, which was then dried and dissolved in water. mRNA was isolated from the whole RNAs as followings. In view of the fact that a poly A chain is attached to the 3′ terminus of mRNA, a polynucleotide having a poly T structure which was immobilized on the surface of latex beads was used to trap the mRNA, and then the mRNA was washed and eluted with spine column (Oligotex-dT30<Super>mRNA Purification Kit, Takara). Reverse transcription of the mRNA was conducted with a reverse transcriptase (Super Script II Reverse Transcriptase; catalogue No. 18064-014, GibcoBRL) using fluorescence-labeled nucleotides to give cDNAs that were introduced with Cy3-dUTP or Cy5-dUTP during the reverse transcription.
# The labeled cDNAs were dissolved in TE buffer (10 mM Tris-HCl/1 mM EDTA, pH 8.0), and the solution was dropped on the DNA chip containing the whole genes of yeast (DNA Chip Research Inc. Japan) so that the cDNAs were hybridized on the DNA chip at 65° C. for over 12 hours. The fluoresces intensity of the DNA chip was read with a scanner, and the ratio relative to the fluorescence intensity resulting from the absence of chemical substance was estimated as the following, which is shown in Tables 1 to 9.
# In the Tables, “Intensity” indicated in the rightmost column is a value of the level of expressed mRNA of each gene in control cells as divided by the average level of the expressions of the whole genes. A gene of which mRNA level is lower in control, and is higher in cases of addition of chemical substance, is especially useful in the detection of toxic substances.
# Here, when a ratio of an amount of mRNA expressed in the presence of the chemical substance to an amount of mRNA expressed in the absence of the chemical substance is two or more, then it is considered significant.
smiles,measurement,setting,value
"[Cl][Hg][Cl] [(3), HgCl2]","The level of expressed mRNA in the presence of chemical substance/The level of expressed mRNA in the absence of chemical substance, yeast gene YBR036C","gene YBR036C, Metabolism protein genes, DNA chip fluorescence ratio",1.8
same,"The level of expressed mRNA in the presence of chemical substance/The level of expressed mRNA in the absence of chemical substance, yeast gene YBR298C","gene YBR298C, Metabolism protein genes, DNA chip fluorescence ratio",1.6
same,"The level of expressed mRNA in the presence of chemical substance/The level of expressed mRNA in the absence of chemical substance, yeast gene YDL067C","gene YDL067C (mitochondria-located protein gene), yeast cultured two hours with chemical substance, DNA chip fluorescence ratio to control",1.6
same,"The level of expressed mRNA in the presence of chemical substance/The level of expressed mRNA in the absence of chemical substance, yeast gene YDL078C","gene YDL078C, Metabolism protein genes, DNA chip fluorescence ratio",1.2
same,"The level of expressed mRNA in the presence of chemical substance/The level of expressed mRNA in the absence of chemical substance, yeast gene YDL215C","gene YDL215C, Metabolism protein genes, DNA chip fluorescence ratio",1.0
same,"The level of expressed mRNA in the presence of chemical substance/The level of expressed mRNA in the absence of chemical substance, yeast gene YDR079W","gene YDR079W (mitochondria-located protein gene), yeast cultured two hours with chemical substance, DNA chip fluorescence ratio to control",0.8
same,"The level of expressed mRNA in the presence of chemical substance/The level of expressed mRNA in the absence of chemical substance, yeast gene YDR297W","gene YDR297W, Metabolism protein genes, DNA chip fluorescence ratio",0.8
same,"The level of expressed mRNA in the presence of chemical substance/The level of expressed mRNA in the absence of chemical substance, yeast gene YDR387C","gene YDR387C, Metabolism protein genes, DNA chip fluorescence ratio",1.2
same,"The level of expressed mRNA in the presence of chemical substance/The level of expressed mRNA in the absence of chemical substance, yeast gene YGL035C","gene YGL035C, Metabolism protein genes, DNA chip fluorescence ratio",4.3
same,"The level of expressed mRNA in the presence of chemical substance/The level of expressed mRNA in the absence of chemical substance, yeast gene YGR062C","gene YGR062C (mitochondria-located protein gene), yeast cultured two hours with chemical substance, DNA chip fluorescence ratio to control",0.7
same,"The level of expressed mRNA in the presence of chemical substance/The level of expressed mRNA in the absence of chemical substance, yeast gene YGR287C","gene YGR287C, Metabolism protein genes, DNA chip fluorescence ratio",1.3
same,"The level of expressed mRNA in the presence of chemical substance/The level of expressed mRNA in the absence of chemical substance, yeast gene YJL070C","gene YJL070C, Metabolism protein genes, DNA chip fluorescence ratio",1.1
same,"The level of expressed mRNA in the presence of chemical substance/The level of expressed mRNA in the absence of chemical substance, yeast gene YJL096W","gene YJL096W (mitochondria-located protein gene), yeast cultured two hours with chemical substance, DNA chip fluorescence ratio to control",0.8
same,"The level of expressed mRNA in the presence of chemical substance/The level of expressed mRNA in the absence of chemical substance, yeast gene YJL180C","gene YJL180C (mitochondria-located protein gene), yeast cultured two hours with chemical substance, DNA chip fluorescence ratio to control",1.1
same,"The level of expressed mRNA in the presence of chemical substance/The level of expressed mRNA in the absence of chemical substance, yeast gene YKR009C","gene YKR009C, Metabolism protein genes, DNA chip fluorescence ratio",1.5
same,"The level of expressed mRNA in the presence of chemical substance/The level of expressed mRNA in the absence of chemical substance, yeast gene YLR295C","gene YLR295C (mitochondria-located protein gene), yeast cultured two hours with chemical substance, DNA chip fluorescence ratio to control",1.1
same,"The level of expressed mRNA in the presence of chemical substance/The level of expressed mRNA in the absence of chemical substance, yeast gene YLR351C","gene YLR351C, Metabolism protein genes, DNA chip fluorescence ratio",1.3
same,"The level of expressed mRNA in the presence of chemical substance/The level of expressed mRNA in the absence of chemical substance, yeast gene YLR375W","gene YLR375W, Metabolism protein genes, DNA chip fluorescence ratio",0.9
same,"The level of expressed mRNA in the presence of chemical substance/The level of expressed mRNA in the absence of chemical substance, yeast gene YMR023C","gene YMR023C (mitochondria-located protein gene), yeast cultured two hours with chemical substance, DNA chip fluorescence ratio to control",0.5
same,"The level of expressed mRNA in the presence of chemical substance/The level of expressed mRNA in the absence of chemical substance, yeast gene YMR267W","gene YMR267W (mitochondria-located protein gene), yeast cultured two hours with chemical substance, DNA chip fluorescence ratio to control",0.7
same,"The level of expressed mRNA in the presence of chemical substance/The level of expressed mRNA in the absence of chemical substance, yeast gene YMR267W","gene YMR267W, Metabolism protein genes, DNA chip fluorescence ratio",0.7
same,"The level of expressed mRNA in the presence of chemical substance/The level of expressed mRNA in the absence of chemical substance, yeast gene YMR278W","gene YMR278W, Metabolism protein genes, DNA chip fluorescence ratio",1.4
same,"The level of expressed mRNA in the presence of chemical substance/The level of expressed mRNA in the absence of chemical substance, yeast gene YMR293C","gene YMR293C, Metabolism protein genes, DNA chip fluorescence ratio",1.6
same,"The level of expressed mRNA in the presence of chemical substance/The level of expressed mRNA in the absence of chemical substance, yeast gene YNL073W","gene YNL073W (mitochondria-located protein gene), yeast cultured two hours with chemical substance, DNA chip fluorescence ratio to control",0.9
same,"The level of expressed mRNA in the presence of chemical substance/The level of expressed mRNA in the absence of chemical substance, yeast gene YNR072W","gene YNR072W, Metabolism protein genes, DNA chip fluorescence ratio",0.5
same,"The level of expressed mRNA in the presence of chemical substance/The level of expressed mRNA in the absence of chemical substance, yeast gene YOL096C","gene YOL096C, Metabolism protein genes, DNA chip fluorescence ratio",1.2
same,"The level of expressed mRNA in the presence of chemical substance/The level of expressed mRNA in the absence of chemical substance, yeast gene YOR180C","gene YOR180C, Metabolism protein genes, DNA chip fluorescence ratio",1.0
same,"The level of expressed mRNA in the presence of chemical substance/The level of expressed mRNA in the absence of chemical substance, yeast gene YOR316C","gene YOR316C (mitochondria-located protein gene), yeast cultured two hours with chemical substance, DNA chip fluorescence ratio to control",1.5
same,"The level of expressed mRNA in the presence of chemical substance/The level of expressed mRNA in the absence of chemical substance, yeast gene YOR363C","gene YOR363C, Metabolism protein genes, DNA chip fluorescence ratio",0.9
same,"The level of expressed mRNA in the presence of chemical substance/The level of expressed mRNA in the absence of chemical substance, yeast gene YPL040C","gene YPL040C (mitochondria-located protein gene), yeast cultured two hours with chemical substance, DNA chip fluorescence ratio to control",0.8
same,"The level of expressed mRNA in the presence of chemical substance/The level of expressed mRNA in the absence of chemical substance, yeast gene YPL134C","gene YPL134C (mitochondria-located protein gene), yeast cultured two hours with chemical substance, DNA chip fluorescence ratio to control",1.6
same,"The level of expressed mRNA in the presence of chemical substance/The level of expressed mRNA in the absence of chemical substance, yeast gene YPR184W","gene YPR184W, Metabolism protein genes, DNA chip fluorescence ratio",5.7
same,level of expressed mRNA in the presence of chemical substance / level in the absence of chemical substance,yeast gene YAL018C,1.1
same,The level of expressed mRNA in the presence of chemical substance/The level of expressed mRNA in the absence of chemical substance,yeast gene YAL053W,1.3
same,level of expressed mRNA in the presence of chemical substance / level in the absence of chemical substance,yeast gene YAR047C,1.5
same,level of expressed mRNA in the presence of chemical substance / level in the absence of chemical substance,yeast gene YAR064W,0.9
same,level of expressed mRNA in the presence of chemical substance / level in the absence of chemical substance,yeast gene YBL044W,2.1
same,The level of expressed mRNA in the presence of chemical substance/The level of expressed mRNA in the absence of chemical substance,yeast gene YBL048W,2.3
same,The level of expressed mRNA in the presence of chemical substance/The level of expressed mRNA in the absence of chemical substance,yeast gene YBL107C,0.4
same,level of expressed mRNA in the presence of chemical substance / level in the absence of chemical substance,yeast gene YBR012C,1.3
same,level of expressed mRNA in the presence of chemical substance / level in the absence of chemical substance,yeast gene YBR066C,1.6
same,level of expressed mRNA in the presence of chemical substance / level in the absence of chemical substance,yeast gene YBR124W,1.5
same,level of expressed mRNA in the presence of chemical substance / level in the absence of chemical substance,yeast gene YBR162C,3.1
same,level of expressed mRNA in the presence of chemical substance / level in the absence of chemical substance,yeast gene YBR287W,3.1
same,level of expressed mRNA in the presence of chemical substance / level in the absence of chemical substance,yeast gene YCL042W,7.2
same,level of expressed mRNA in the presence of chemical substance / level in the absence of chemical substance,yeast gene YCL056C,0.7
same,level of expressed mRNA in the presence of chemical substance / level in the absence of chemical substance,yeast gene YCR007C,0.9
same,level of expressed mRNA in the presence of chemical substance / level in the absence of chemical substance,yeast gene YDL046W,5.1
same,The level of expressed mRNA in the presence of chemical substance/The level of expressed mRNA in the absence of chemical substance,yeast gene YDL072C,3.5
same,The level of expressed mRNA in the presence of chemical substance/The level of expressed mRNA in the absence of chemical substance,yeast gene YDL204W,4.8
same,The level of expressed mRNA in the presence of chemical substance/The level of expressed mRNA in the absence of chemical substance,yeast gene YDL222C,1.5
same,level of expressed mRNA in the presence of chemical substance / level in the absence of chemical substance,yeast gene YDR090C,0.8
